Reference: patent US20240247031A1, “COMPOSITION FOR TREATING CANCER CONTAINING TELOMERASE-TARGETING GNRH ANTAGONIST-DERIVED PEPTIDE HS1002” (Research & Business Foundation Sungkyunkwan University, priority 2023, published 2024)

Legend:
[1] = test system: c-Myc, AKT, ERK1/2 in LNCaP tumor xenografts; test: Western blot of c-Myc and signaling proteins in LNCaP-xenografted tumors (FIG. 14); type: in vivo, mouse; conditions: LNCaP xenograft; HS1002 1 mg/kg/day, LA 0.1 mg/kg/day s.c.
Procedure: The cells and tumor tissues were homogenized using the PRO-PREP™ extraction solution (iNtRON Biotechnology, Seongnam, Korea). After incubation, the homogenate was centrifuged at 16,000×g for 20 min at 4° C., and the supernatant was collected for western blot analysis. Subsequently, an equivalent quantity of protein was separated using sodium dodecyl sulfate polyacrylamide gels and transferred onto a polyvinylidene difluoride (PVDF) membrane. The PVDF membranes were incubated with the primary antibodies overnight at 4° C., washed with tris-buffered saline, and then incubated with HRP-conjugated anti-mouse or anti-rabbit antibodies. The bands were visualized using a ChemiDoc imaging system (Bio-Rad, Hercules, CA, USA). The band intensities were determined using an Image J software.
All mice were purchased from Central Lab Animal Inc. ([…]). They were raised in a 12 h environmental light/dark cycle with controlled temperature (22±2° C.) conditions. The experimental protocol was approved by the Sungkyunkwan University Institutional Animal Care and Use Committee (SKKUIACUC2021-06-27-1, SKKUIACUC2023-01-07-1). For the establishment of tumors, LNCaP (1×10^7), MC38 (2×10^5), and 4T1 (1×10^6) suspended in serum-free media containing 50% Matrigel was subcutaneously administered in the right flank of mice, respectively. The tumor volumes (V) were calculated using a caliper and the standard equation: V (mm^3)=0.52 (ab^2) (a=length, b=width). Once the tumor reached 100-200 mm^3, the mice were randomly divided into different groups and subcutaneously injected with a vehicle or each peptide every day.
To investigate the anticancer effect of HS1002, the present inventors observed the volume of cancer cells after transplanting the cancer cells into experimental animals. Specifically, mice (4-week-old male BALB/c nude mice; Central Lab. Animal Inc., Seoul, Korea) were prepared, and tumor cells (1×10^7 LNCaP cells) suspended in 1 mL of a serum-free medium containing 50% Matrigel were percutaneously injected into the upper flank of each nude mouse. When the tumor cell volume reached about 200 mm^3, the mice were randomly assigned to a vehicle control group, a leuprolide acetate-treated group, and test groups (GV1001-treated group and HS1002-treated group), respectively. Leuprolide acetate (0.1 mg/kg/day) and GV1001 and HS1002 (1 mg/kg/day) were injected subcutaneously for 13 days.

HEK293-GnRHR cells [2] = target: T1, HEK293-GnRHR cells (Homo sapiens, UniProt P30968); test: Intracellular calcium flux assay; type: cell-based; conditions: 100 nM
T1 construct: GFP; expressed in transfected cells
T1 sequence (P30968 1-328): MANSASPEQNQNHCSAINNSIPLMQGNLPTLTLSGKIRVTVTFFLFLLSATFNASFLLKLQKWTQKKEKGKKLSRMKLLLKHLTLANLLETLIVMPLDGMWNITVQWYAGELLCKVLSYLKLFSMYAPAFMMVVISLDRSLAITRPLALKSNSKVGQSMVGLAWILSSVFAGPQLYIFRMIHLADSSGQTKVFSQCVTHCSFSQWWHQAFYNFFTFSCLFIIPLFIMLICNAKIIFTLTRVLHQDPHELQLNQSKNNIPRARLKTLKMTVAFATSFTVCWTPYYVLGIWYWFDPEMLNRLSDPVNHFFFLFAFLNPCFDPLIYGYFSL
Procedure: (§1) Human embryonic kidney cell line (HEK293), and mouse cancer cell lines (MC38, 4T1) were purchased from the American Type Culture Collection (Manassas, VA, USA). All cell lines were grown in Dulbecco's Modified Essential Medium (DMEM) or Roswell Park Memorial Institute (RPMI) 1640 supplemented with 10% FBS, 100 U/mL penicillin, and 100 μg/mL streptomycin (WelGENE, Daegu, South Korea) in a humidified atmosphere of 5% CO2 at 37° C. To obtain GnRHR-overexpressing HEK293 (HEK293-GnRHR) cells, transfection of the pCMV-AC-GFP-GnRHR vector (HEK293-GnRHR) was performed using Lipofectamine™ 3000 according to the manufacturer's instructions (Cat. 100022052, Thermo Fisher Scientific, Waltham, MA, USA). Colonies of geneticin-resistant cells were selected by adding G418 (800 μg/mL, Sigma) to the culture medium. The HEK293-pCMV-AC-GFP vector (HEK293-Vector) cells were used as a mock-transfection group.
Intracellular calcium mobilization was measured using the Calcium Flux Assay Kit (Cat. ab233472, abcam) in response to different concentrations of each peptide. The percentage increase was calculated relative to basal fluorescence intensity. The experiment was performed in triplicate.

HEK293-GnRHR cells [3] = target: T1, HEK293-GnRHR cells; test: CRE-luciferase reporter assay; type: cell-based; conditions: 100 nM, 24 h
Procedure: as §1
The HEK293-pCMV6-AC-GFP and HEK293-GnRHR cells (4×10^4 cells/well) were grown in 96-well plates and co-transfected with a luciferase reporter plasmid containing a cAMP response element (CRE) using Lipofectamine 3000 (Life Technologies). The transfected cells were exposed to different concentrations of peptide for 24 h, and the promoter activity was measured by a dual-luciferase reporter assay system (BPS Bioscience). The firefly and Renilla luciferase activities were measured using a microplate luminometer (Thermo, Varioskan LUX Multimode Microplate Reader). The calculation of relative luciferase activities involved the normalization of the firefly luciferase activity […].

HEK293-Vector cells = test: CRE-luciferase reporter assay, mock-transfected cells; type: cell-based, human
Procedure: as §1, with “group. […] The transfected cells were exposed to different concentrations of peptide for 24 h, and the promoter activity was measured by a dual-luciferase reporter assay system (BPS Bioscience). The firefly and Renilla luciferase activities were measured using a microplate luminometer (Thermo, Varioskan LUX Multimode Microplate Reader). […]” for “group.”

CCNC(=O)[C@@H]1CCCN1C(=O)[C@H](CCCNC(=N)N)NC(=O)[C@H](CC(C)C)NC(=O)[C@@H](CC(C)C)NC(=O)[C@H](Cc1ccc(O)cc1)NC(=O)[C@H](CO)NC(=O)[C@H](Cc1c[nH]c2ccccc12)NC(=O)[C@H](Cc1c[nH]cn1)NC(=O)[C@@H]1CCC(=O)N1 [LA, Leuprolide acetate, reference compound]
expression of c-Myc in tumor tissue [1]: significantly downregulated
expression of p-AKT in tumor tissue [1]: significantly downregulated
expression of p-ERK1/2 in tumor tissue [1]: significantly downregulated
calcium flux (HEK293-GnRHR cells [2]): more potent effect of calcium flux in HEK293-GnRHR cells than in HEK293-Vector cells
CRE-derived reporter gene activity (HEK293-GnRHR cells [3]): induced CRE-derived reporter gene activity
CRE-luciferase activity (HEK293-Vector cells): no significant change
